One assay deals with MCM6. The conditions noted are these: ref [56], cited from earlier work.
In assay [1] the target is T1, MCM6 winged-helix domain (WHD) C721S mutant, residues 708-821 (human, UniProt Q14566 708-821, C721S).
T1 sequence (looked up): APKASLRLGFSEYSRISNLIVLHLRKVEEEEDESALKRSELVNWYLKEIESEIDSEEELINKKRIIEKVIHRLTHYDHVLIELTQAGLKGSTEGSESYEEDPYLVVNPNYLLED
The experiment in a line: fluorescence polarisation. In general terms: Fluorescence polarisation rises when a labelled molecule tumbles more slowly, as on binding a larger partner.

Where two headings read alike, the source gives them in different places.

For Bloom syndrome helicase [BLM], the “interaction with MCM6” value was “weakened the interaction” in the assay on MCM6 (both MBD-C and D regions mutated); “do not interact” in the assay with MCM6 (either MBD-C or D regions deleted).
Consider WLSSDVICI (peptide, UniProt P54132 230-238, looked up) [BLM MCM6 binding domain C peptide (BLM 230-238), unlabeled], for which the “fold, competition of MBD-C against FITC-MBD-C relative to FITC-MBD-D” value in assay [1] came to 1.7 fold.

The values are drawn from paper PMC12176262 (The Febs Journal, 2025).
